Key:
[1] = molecular target: T1, recombinant human baculovirus-expressed GST-tagged FASN (Homo sapiens, UniProt P49327); assay: FASN enzyme activity assay, fluorescence-based detection of CoA with CPM; format: biochemical; conditions: 5 nM FASN, 150 μM NADPH, 10 μM acetyl-CoA, 25 μM malonyl-CoA, 90 minutes incubation; read-out: IC50 data for Additional Compounds of Formulae I-V(a): Activity
T1 construct: GST
In short: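 CoA product reacted with thiol-reactive CPM (diluted to 50 μM in 70% ethanol), read at 390/530 nm after 30 min. Preceding reaction: 90 min, 5 nM recombinant GST-FASN, 150 μM NADPH, 10 μM acetyl-CoA, 25 μM malonyl-CoA, pH 7.5 HEPES, 0.5% DMSO. IC50s fitted by nonlinear sigmoidal regression.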

T1 sequence (P49327 whole entry): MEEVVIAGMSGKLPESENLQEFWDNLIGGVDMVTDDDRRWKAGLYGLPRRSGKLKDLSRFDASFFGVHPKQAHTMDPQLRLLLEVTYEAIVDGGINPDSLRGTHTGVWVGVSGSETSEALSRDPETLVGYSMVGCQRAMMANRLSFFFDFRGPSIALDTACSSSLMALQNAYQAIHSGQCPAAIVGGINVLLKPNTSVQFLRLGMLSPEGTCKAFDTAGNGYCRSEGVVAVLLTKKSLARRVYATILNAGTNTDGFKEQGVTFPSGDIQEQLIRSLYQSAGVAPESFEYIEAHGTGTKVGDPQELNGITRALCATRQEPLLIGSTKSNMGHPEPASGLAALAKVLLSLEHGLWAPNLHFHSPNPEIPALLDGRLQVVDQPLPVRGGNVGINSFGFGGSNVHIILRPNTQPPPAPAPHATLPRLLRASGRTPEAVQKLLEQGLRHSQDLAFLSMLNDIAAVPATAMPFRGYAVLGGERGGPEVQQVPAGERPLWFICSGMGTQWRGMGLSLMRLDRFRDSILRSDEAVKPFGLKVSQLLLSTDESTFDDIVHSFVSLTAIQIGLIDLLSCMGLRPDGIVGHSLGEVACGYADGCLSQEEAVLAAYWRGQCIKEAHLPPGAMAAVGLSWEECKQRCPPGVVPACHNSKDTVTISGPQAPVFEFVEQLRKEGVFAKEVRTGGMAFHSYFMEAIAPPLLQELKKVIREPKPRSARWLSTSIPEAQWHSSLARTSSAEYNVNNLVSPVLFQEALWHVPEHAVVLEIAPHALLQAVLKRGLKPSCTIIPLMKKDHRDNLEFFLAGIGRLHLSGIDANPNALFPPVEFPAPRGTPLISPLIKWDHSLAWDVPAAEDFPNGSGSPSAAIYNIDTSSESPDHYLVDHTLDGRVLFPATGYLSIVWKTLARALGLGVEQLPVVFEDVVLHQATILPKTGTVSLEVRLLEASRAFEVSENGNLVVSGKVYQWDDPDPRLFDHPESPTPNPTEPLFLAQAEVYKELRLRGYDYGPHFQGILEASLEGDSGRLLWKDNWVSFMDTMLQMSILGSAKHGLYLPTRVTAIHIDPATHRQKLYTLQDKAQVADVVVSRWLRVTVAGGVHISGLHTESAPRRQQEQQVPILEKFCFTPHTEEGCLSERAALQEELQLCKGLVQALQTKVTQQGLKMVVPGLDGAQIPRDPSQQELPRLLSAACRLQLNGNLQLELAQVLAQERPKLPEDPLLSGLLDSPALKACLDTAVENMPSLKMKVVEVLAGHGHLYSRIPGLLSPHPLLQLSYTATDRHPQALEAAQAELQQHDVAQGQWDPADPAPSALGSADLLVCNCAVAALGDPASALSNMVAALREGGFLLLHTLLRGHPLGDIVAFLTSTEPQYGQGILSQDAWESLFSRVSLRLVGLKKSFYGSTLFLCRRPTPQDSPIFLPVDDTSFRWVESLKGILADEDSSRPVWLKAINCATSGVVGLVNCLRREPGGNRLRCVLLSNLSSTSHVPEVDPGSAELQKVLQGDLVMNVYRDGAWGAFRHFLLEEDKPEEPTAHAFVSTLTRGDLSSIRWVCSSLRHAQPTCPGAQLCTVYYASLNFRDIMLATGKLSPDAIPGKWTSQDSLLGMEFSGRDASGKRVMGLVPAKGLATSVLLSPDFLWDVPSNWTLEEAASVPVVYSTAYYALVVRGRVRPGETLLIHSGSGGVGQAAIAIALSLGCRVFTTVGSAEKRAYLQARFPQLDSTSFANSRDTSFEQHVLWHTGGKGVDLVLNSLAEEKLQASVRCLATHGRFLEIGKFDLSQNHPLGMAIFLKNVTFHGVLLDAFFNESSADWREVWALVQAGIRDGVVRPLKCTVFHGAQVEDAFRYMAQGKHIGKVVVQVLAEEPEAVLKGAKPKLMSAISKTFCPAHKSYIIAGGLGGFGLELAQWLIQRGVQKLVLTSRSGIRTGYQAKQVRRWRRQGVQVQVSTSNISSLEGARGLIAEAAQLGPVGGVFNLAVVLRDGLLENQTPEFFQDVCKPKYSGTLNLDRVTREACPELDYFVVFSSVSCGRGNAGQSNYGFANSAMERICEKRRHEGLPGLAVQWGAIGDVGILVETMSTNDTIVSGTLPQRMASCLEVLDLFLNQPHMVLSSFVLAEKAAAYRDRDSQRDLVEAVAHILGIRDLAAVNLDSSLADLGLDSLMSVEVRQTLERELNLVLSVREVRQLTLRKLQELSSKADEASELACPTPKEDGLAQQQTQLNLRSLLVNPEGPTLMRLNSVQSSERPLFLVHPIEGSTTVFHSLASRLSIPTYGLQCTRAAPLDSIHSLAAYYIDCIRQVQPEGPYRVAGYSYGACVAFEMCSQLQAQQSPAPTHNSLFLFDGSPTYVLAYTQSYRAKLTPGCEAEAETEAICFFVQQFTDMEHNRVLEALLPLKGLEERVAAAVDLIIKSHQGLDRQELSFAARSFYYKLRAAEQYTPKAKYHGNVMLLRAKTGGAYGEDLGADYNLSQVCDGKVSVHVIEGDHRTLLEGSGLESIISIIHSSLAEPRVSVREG

Row | Structure (SMILES) | IC50 [1] | melting point
1 | Cc1nccc2cc(-c3ccc(OC4CCN(C(=O)NCC5CC5)CC4)cc3)ccc12 [Example 582, N-(Cyclopropylmethyl)-4-[4-(1-methyl-6-isoquinolyl)phenoxy]piperidine-1-carboxamide] | 1000 to 10000 nM | 188 °C
2 | Cc1nccc2cc(-c3ccc(OC4CCN(C(=O)NOC(C)C)CC4)cc3)ccc12 [Example 583, N-Isopropoxy-4-[4-(1-methyl-6-isoquinolyl)phenoxy]piperidine-1-carboxamide] | 1 to 99 nM | 189 °C
3 | CCCONC(=O)N1CCC(Oc2ccc(-c3ccc4c(C)nccc4c3)cc2)CC1 [Example 584, 4-[4-(1-Methyl-6-isoquinolyl)phenoxy]-N-propoxypiperidine-1-carboxamide] | 1 to 99 nM | 165 °C
4 | Cc1nccc2cc(-c3ccc(OC4CCN(C(=O)NO)CC4)cc3)ccc12 [Example 585, 4-[4-(1-Methyl-6-isoquinolyl)phenoxy]piperidine-1-carbohydroxamic acid] | 100 to 999 nM | 185 °C

Results, then the compound that gave them:

Row | IC50 [1] | melting point | Structure (SMILES)
5 | 1000 to 10000 nM | 208 °C | CCONC(=O)N1CCC(Oc2ccc(-c3ccc4c(C)nccc4c3)cc2)CC1 [Example 586, N-Ethoxy-4-[4-(1-methyl-6-isoquinolyl)phenoxy]piperidine-1-carboxamide]
6 | 1 to 99 nM | 152 °C | CCONC(=O)N1CCC(Oc2ccc(-c3cnc4ccccc4c3C)cc2)CC1 [Example 587, N-Ethoxy-4-[4-(4-methyl-3-quinolyl)phenoxy]piperidine-1-carboxamide]
7 | 1 to 99 nM | 80 °C | Cc1c(-c2ccc(OC3CCN(C(=O)NOC(C)C)CC3)cc2)cnc2ccccc12 [Example 588, N-Isopropoxy-4-[4-(4-methyl-3-quinolyl)phenoxy]piperidine-1-carboxamide]
8 | 1 to 99 nM | 75 °C | CCCONC(=O)N1CCC(Oc2ccc(-c3cnc4ccccc4c3C)cc2)CC1 [Example 589, 4-[4-(4-Methyl-3-quinolyl)phenoxy]-N-propoxy-piperidine-1-carboxamide]
9 | 1 to 99 nM | 153 °C | Cc1c(-c2ccc(OC3CCN(C(=O)NCC(C)C)CC3)cc2)cnc2ccccc12 [Example 590, N-Isobutyl-4-[4-(4-methyl-3-quinolyl)phenoxy]piperidine-1-carboxamide]
10 | 1 to 99 nM | 171 °C | CCCNC(=O)N1CCC(Oc2ccc(-c3cnc4ccccc4c3C)cc2)CC1 [Example 591, 4-[4-(4-Methyl-3-quinolyl)phenoxy]-N-propyl-piperidine-1-carboxamide]
